One experiment concerns WT CFTR HBEs. As to the kind of experiment: Ussing chamber Isc, DCEBIO-induced Cl- secretion. In kind it is cell-based, human. Conditions: VX-445 10 µM. The source says:
Primary human bronchial epithelial cells (HBEs) were collected from unused or discarded samples from the Center for Organ Recovery and Education via the University of Pittsburgh Pulmonary, Allergy, Critical Care, and Sleep Medicine Lung Biobank and Repository. All experimental procedures involving the use of HBEs were approved by the institutional review board (IRB STUDY19090084) and the Committee for Oversight of Research and Clinical Training Involving Decedents (CORID number 451) at the University of Pittsburgh. At all times, authors were blind to the identity of HBE donors. HBEs were cultured using the Vertex method ([72]). Studies were carried out on WT CFTR HBEs from 11 ([13]) donors and homozygous F508del/F508del CFTR HBEs from five ([5]) separate donors. HBEs were plated on Costar Transwell permeable supports ([…], 6.5 mm insert, polyester membrane, Corning) and grown at an air–liquid interface for 5+ weeks in HBE differentiation medium containing 2% Ultroser-G. Basolateral media were replaced three times per week. For whole-cell patch-clamp studies, HBEs were maintained in BronchiaLife airway media (LifeLine Cell Technology, LS-1047) and plated onto poly-L-lysine-coated coverslips (see below).
Costar Transwell inserts were mounted in a modified Ussing chamber (P2300, Physiologic Instruments) and the monolayers continuously short-circuited (VCC MC8, Physiologic Instruments) by forcing the transepithelial voltage to 0 mV. Short-circuit current (Isc) measurements were taken in symmetric solutions, containing (in mM): 120 NaCl, 25 NaHCO3, 3.3 KH2PO4, 0.8 K2HPO4, 1.2 CaCl2, 1.2 MgCl2, and 10 glucose. The pH of the solution is 7.4 when gassed with 95% O2–5% CO2 at 37°C. Compounds were added cumulatively following the establishment of a new stable current response. Amiloride was added to the apical membrane, while all other compounds were added to both membranes due to their lipophilic nature. In all experiments, 10 µM amiloride was used to inhibit sodium absorption. Percent inhibition was calculated as the change in Isc (ΔIsc) between the forskolin or DCEBIO stable current level and the Isc following addition of the compound being assessed divided by the ΔIsc between the stable forskolin- or DCEBIO-induced Isc and the Isc following bumetanide addition.

A further experiment deals with T1, KCa3.1 (Homo sapiens, UniProt O15554).
T1 construct: expressed in transfected cells
In words: Whole-cell patch-clamp on HEK cells heterologously expressing KCa3.1. In kind it is cell-based. Conditions: HEK293, VX-445 10 µM. As for the experimental part: Our Isc results are consistent with VX-445 inhibiting KCa3.1 in HBEs. To directly assess this possibility, we initially carried out whole-cell patch-clamp studies on undifferentiated HBEs. […] Upon application of 10 µM VX-445, a majority of this current was inhibited, averaging 87 ± 4% (n = 3, P < 0.005; Fig. 3B). A summary of the current–voltage (I–V) relationship—normalized to cell capacitance—is shown in Fig. 3C, which also includes the whole-cell I–V in the presence of Tram-34. […] To ensure isolation of KCa3.1 currents and to more fully characterize this VX-445-dependent inhibition of KCa3.1, we utilized HEK cells heterologously expressing KCa3.1 (HEK-KCa3.1). Initially, we confirmed our results from HBEs, using whole-cell recordings, as above. […] In seven experiments, this inhibition averaged 58 ± 7% (P < 0.005). […] It is well recognized that drugs are carried to their targets in the blood bound to albumin, which ranges from 3.4 to 5.4%. Thus, we determined whether VX-445 (10 µM) would inhibit KCa3.1 expressed in HEK cells in the presence of 3.4% albumin. In four experiments, VX-445 inhibited an average of 51 ± 17% of the whole-cell KCa3.1 current, which is not different from that observed in the absence of albumin. To confirm the direct effect of VX-445 on KCa3.1, we utilized the excised, inside-out patch-clamp technique. The patch was then exposed to DCEBIO (100 µM) to further activate the channels ([34–37])—analogous to our Isc studies in HBEs. […] In three experiments, VX-445 inhibited an average of 63 ± 6% of the KCa3.1 current. Based on these experiments, we determined the apparent inhibitory constant, Ki for VX-445. For these experiments, patches were excised into saturating Ca^2+ (3 µM) to ensure maximal KCa3.1 activation. These studies were carried out in the absence of DCEBIO to eliminate the possibility that the inhibition observed was due to competition for the DCEBIO-binding site.
HEK cells stably expressing KCa3.1 (IK1, SK4), KCa2.3 (SK3), and KCa2.2 (SK2) were generated and cultured as previously described by us ([37], [66–71]).
HEK cells expressing the channel of interest were plated onto poly-L-lysine-coated glass coverslips 1–2 days prior to patch-clamp analysis. Electrophysiological recordings in the excised, inside-out, and whole-cell patch-clamp configurations were performed as recently described ([14]). For excised patch-clamp recordings, the pipette solution contained (in mM): 140 K-gluconate, 5 KCl, 1 CaCl2, 1 MgCl2, and 10 HEPES. The pH was adjusted to 7.2 with KOH. The bath solution contained (in mM): 145 K-gluconate, 5 KCl, 1.3 MgCl2, 10 HEPES, and 1 EGTA. Sufficient CaCl2 was added to obtain the desired free Ca^2+ concentration at a pH of 7.2 (adjusted with KOH). When recording KCa3.1 channels, ATP (300 µM) was added to the bath to diminish channel rundown ([73]). All recordings were carried out at a voltage of −100 mV, referenced to the extracellular compartment, as is standard. The apparent Ki and Hill coefficient for each CFTR corrector on KCa3.1, KCa2.3, and KCa2.2 were determined during a continuous recording by step-wise addition of increasing concentrations of compound and fitting the resultant relative remaining current to a Hill equation (Prism v. 10.1.0). The zero current level was determined by the addition of a 0 Ca^2+ solution (zero-added Ca^2+ plus 1 mM EGTA) at the end of the experiment. In the case of KCa3.1, TRAM-34, a known inhibitor of KCa3.1 ([45]), was used to confirm expression of the channel. For whole-cell experiments, pipettes contained (in mM): 145 K-gluconate, 10 EGTA, 7.5 CaCl2, 2 MgCl2, 3 mM NaATP, and 10 HEPES. The bath solution contained (in mM): 140 K-gluconate, 5 KCl, 1.0 MgCl2, 10 HEPES, and 2 CaCl2. Current–voltage relationships were determined by stepping from a holding potential of −80 mV to +80 mV in 20 mV increments for 400 ms. […]

What is called inhibition is how much of the control response was suppressed.

Structures are written as SMILES. Like-named read-outs stand apart in the source and are kept apart here.

`Cc1nn(C)cc1S(=O)(=O)NC(=O)c1ccc(-n2ccc(OCC(C)(C)C(F)(F)F)n2)nc1N1C[C@@H](C)CC1(C)C` [VX-445, elexacaftor]: the inhibition at 10 µM in the experiment on WT CFTR HBEs (Homo sapiens, four donors, n = 12 (TRAM-34 series), read-out: inhibition of the DCEBIO-induced current) worked out at 69 ± 3%; on KCa3.1 (four experiments, read-out: inhibition of whole-cell KCa3.1 current in the presence of 3.4% albumin), 51 ± 17%; on KCa3.1 (seven experiments, read-out: inhibition of whole-cell KCa3.1 current), 58 ± 7%. Also, the “decrease of the DCEBIO-induced Cl- current” value in the experiment on WT CFTR HBEs (n = 19) amounted to 54 ± 2%.

The values are drawn from PMC12275099, “VX-445 (elexacaftor) inhibits chloride secretion across human bronchial epithelial cells by directly blocking KCa3.1 channels” (PNAS Nexus, 2025).
